Reference: patent publication US9844521B2, “Pharmaceutical composition comprising ginger extract or shogaol” (UNIVERSITY-INDUSTRY COOPERATION GROUP OF KYUNG HEE …, priority 2008, dated 2017)

System: C57BL/6 mouse having MPTP-induced Parkinson's disease
Assay: Pole test in MPTP-induced Parkinson's disease model
Assay type: in vivo
Conditions: 10 mg/kg oral once per day for 5 days, MPTP 30 mg/kg i.p.
Method: 7-week old C57BL/6 based male mice (19-22 g) were obtained and nurtured in an animal laboratory at Kyunghee University Graduate School of East-West Medicine
Science for one week or more for adaptation. Water and feed were freely supplied, and the temperature (22±2[…]), humidity (53±3%), and a cycle of brightness and darkness (12 hours) were automatically controlled. Shogaol used was obtained from WAKO Company (Japan).
Mice were divided into three groups, each of which consisted of 6 mice. A first group (control) and a second group (MPTP group) were orally administered once per day with 10% dimethyl sulfoxide in an amount of 5 ml per mouse weight kg for 5 days, and a third group (shogaol-administered group) was orally administered once per day with 10 mg/kg of shogaol dissolved in 10% dimethyl sulfoxide for 5 days. […]
On a day after the last day of the 5-day administration period, a pole test was performed using a pole having a height of 50 cm and a diameter of 1 cm. A C57bl/6 mouse was placed on the pole with its head upward, and a time during which the mouse turns a summit of the pole at an angle of 180° and moves downward until its four feet touch the ground was measured. […]

CCCCC/C=C/C(=O)CCc1ccc(O)c(OC)c1 [shogaol, (E)-1-(4-hydroxy-3-methoxyphenyl)dec-4-en-3-one]
T-la (% of control), pole test: 99.1 ± 8.11%
